Tested on: green peach aphid (Myzus persicae)
Assay: Test F: control of green peach aphid on radish plant, contact and/or systemic
Format: in vivo
Conditions: sprayed at 50 ppm; assessed after 6 days
Protocol: Test compounds were formulated using a solution containing 10% acetone, 90% water and 300 ppm X-77® Spreader Lo-Foam Formula non-ionic surfactant containing alkylarylpolyoxyethylene, free fatty acids, glycols and isopropanol (Loveland Industries, Inc. Greeley, Colorado, USA). The formulated compounds were applied in 1 mL of liquid through a SUJ2 atomizer nozzle with ⅛ JJ custom body (Spraying Systems Co. Wheaton, Ill., USA) positioned 1.27 cm (0.5 inches) above the top of each test unit. Test compounds were sprayed at 250 and/or 50 ppm, and replicated three times. After spraying of the formulated test compound, each test unit was allowed to dry for 1 h and then a black, screened cap was placed on top. The test units were held for 6 days in a growth chamber at 25° C. and 70% relative humidity. Plant feeding damage was then visually assessed based on foliage consumed.
For evaluating control of green peach aphid (Myzus persicae) through contact and/or systemic means, the test unit consisted, of a small open container with a 12-15-day-old radish plant inside. […]
Test compounds were formulated and sprayed at 250 ppm and/or 50 ppm as described for Test A. The applications were replicated three times. […] Each test unit was then visually assessed for insect mortality.

O=c1c(SC(F)(F)F)c([O-])[n+](Cc2cnc(Cl)s2)c2ccccn12 [Compound 102]
mortality (at least 80% mortality): at least 80%
